{
  "source": "patent US8765729B2",
  "about": "“Cancer therapy” (Aeolus Sciences, Inc., priority 2001, dated 2014)",
  "key": {"A549 cells": {"system": "A549 cells", "experiment": "3H-thymidine incorporation (DNA synthesis) in A549 cells", "assay_type": "cell-based, human", "conditions": "4 μM, 24 hours", "procedure": "FIG. 16. A549 cells were grown 50% confluence in 24 well plates in complete media. Cells were then incubated for 24 hours with the above concentrations of drug and ^3H-thymidine (to assess DNA synthesis). After three washes in PBS, the cells were homogenized and the radioactivity counted. At 4 μM MnTE-2-PyP, there was a 50% inhibition of incorporation of ^3H-thymidine."}, "[1]": {"experiment": "SOD activity (cytochrome C method)", "assay_type": "biochemical", "source_text": "FIGS. 1A-1H show the structures of certain generic and specific definitions of compounds suitable for use in the present invention. With reference to FIG. 1C, mimetics of the invention can be of Formula I or Formula II, or dimeric forms thereof, an example of a dimeric form being shown in FIG. 1D. With reference to FIG. 1H, the SOD activities of certain of the depicted compounds are shown in Table 1 (as measured by the cytochrome C method): […]"}, "[2]": {"system": "radiation-induced lung injury", "experiment": "Radiation-induced lung injury in rats (28 Gy right hemithoracic irradiation)", "assay_type": "in vivo", "procedure": "AEOL 10113 was tested (6 mg/kg/day for 5 days beginning on the day of irradiation) in a rat model of radiation-induced lung injury as assessed by breathing rate (animals with lung injury have a more rapid respiration rate), and chemical and microscopic measures of fibrosis. During the follow-up period of 6 months, 4 of the 9 rats receiving radiation only developed severe respiratory distress and were euthanized. In the group of rats treated with radiation plus AEOL 10113, only 1 of the 9 rats developed respiratory distress and was euthanized. Breathing rate data were analyzed on a last observation carried forward (LOCF) data set, in which the last observation for rats euthanized due to respiratory distress was imputed to subsequent weeks. There was a significant (log ranks p=0.0011) delay (approximately 3.4 weeks) in the development of radiation-induced lung injury (assessed by an increase in breathing rate) in animals treated with AEOL 10113 (FIG. 12).\nSix months after radiation all remaining animals were euthanized. At that time, the right upper lung lobe was removed and processed to quantify the extent of lung fibrosis based on hydroxyproline content.\nRadiation-induced lung fibrosis was also assessed using histopathology (FIG. 13B). Lungs were fixed in 10% neutral buffered formalin. Five-micron thick sections were stained with hematoxylin and eosin or Masson trichrome and examined microscopically. Slides were systematically scanned in a microscope using a ×10 objective. Each successive field was individually assessed for severity of interstitial fibrosis and allotted a score of between 0 and 8.\nStudies were performed to evaluate changes in body weight after irradiation and to assess the radioprotective effect of MnTE-2-PyP on radiation-induced pulmonary injury in rats. The body weight and lung function of the animals were measured every two weeks after irradiation in three groups of animals: control, radiation alone and radiation+MnTE-2-PyP. A single dose of 28 Gy was delivered to right hemithorax and 6 mg/kg of MnTE-2-PyP was given daily i.p. for 5 days after irradiation. Unrestrained rats were placed in a 1500 ml whole body plethysmograph tube connected to a pressure transducer for a breathing rate measurements. […] The mean of five measurements was performed on each animal."}, "[3]": {"system": "R3230 AC mammary adenocarcinoma", "experiment": "R3230 AC mammary adenocarcinoma growth and radiation response in Fischer 344 rats", "assay_type": "in vivo", "conditions": "for tumor growth as compared to control (Day 20 Tumor Ratio, Days for 5-fold tumor growth): 6 mg/kg/day IP Day 1 to 20, FIG. 2C", "procedure": "FIGS. 2A-2C. (FIG. 2A) B16 melanoma tumor treated with SOD mimetic. The mimetic was 10113 at a dose of 6 mg/kg given intraperitoneally qd for 5 days. (FIG. 2B) Mammary adenocarcinoma treated with SOD mimetic. 10113 was given intraperitoneally at a dose of 6 mg/kg/day for 16 days. Radiation therapy (RT), 21 Gy, was given on day 8 or 9. (FIG. 2C) Fischer 344 rats with subcutaneously implanted R3230 AC mammary adenocarcinomas received Radiation treatment (21 Gy Day 1), AEOL 10113 (6 mg/kg/day IP Day 1 to 20), the combination Radiation and AEOL 10113 (as above), or Control treatment.\nThe effect of the MnTE-2-PyP (manganese(III) tetrakis(N-ethylpyridinium-2-yl)porphyrin) on tumor growth and radiation response in two tumor models has been tested. […] The effect of the SOD mimetic. MnTE-2-PyP, on tumor growth and radiation response has been tested in a rat model.\n[…] AC mammary adenocarcinoma was transplanted on the right hind leg. When the tumors reached 0.8-1 cm in diameter, the rats were randomized into 4 groups to receive 1) Saline (control); 2) Drug 10150; 3) Drug 10113; 4) Drug 10201. Drugs were given daily in dose of […] i.p. The tumor size was measured twice a week. (FIG. 3)."}},
  "data": [
    {"smiles": "CC[n+]1ccccc1-c1c2nc(c(-c3cccc[n+]3CC)c3ccc([n-]3)c(-c3cccc[n+]3CC)c3nc(c(-c4cccc[n+]4CC)c4ccc1[n-]4)C=C3)C=C2.[Mn+3]", "note": "[Compound 10113, manganese(III)tetrakis(N-ethylpyridinium-2-yl)porphyrin]", "values": [
      {"measurement": "inhibition of incorporation of 3H-thymidine", "setting": "A549 cells", "result": 50, "unit": "%"},
      {"measurement": "SOD activity", "setting": "[1]", "result": "10,648 U/mg"},
      {"measurement": "delay in the development of radiation-induced lung injury (increase in breathing rate)", "setting": "[2]; 6 mg/kg/day for 5 days, LOCF, log ranks p=0.0011", "result": "approximately 3.4 weeks"},
      {"measurement": "reduction of the magnitude of the increase in breathing rate at endpoint", "setting": "[2]; 6 mg/kg/day for 5 days, average", "result": 34, "unit": "%"},
      {"measurement": "hydroxyproline content of upper right lobe after radiation", "setting": "[2]; 6 months after 28 Gy, wet and dry lung", "result": "significant reduction (p<0.05)"},
      {"measurement": "recovery of body weight loss after hemithoracic irradiation", "setting": "[2]; 28 Gy, 6 mg/kg daily i.p. for 5 days", "result": "significantly better recovery of the body weight loss"},
      {"measurement": "hydroxyproline content of right upper lobe vs control", "setting": "[2]; AEOL 10113 without radiation", "result": "no differences"},
      {"measurement": "radiation-induced lung fibrosis by histopathology", "setting": "[2]; fibrosis score 0-8, FIG. 13B", "result": "reduced radiation-induced lung fibrosis"},
      {"measurement": "rats that developed respiratory distress and were euthanized", "setting": "[2]; of 9 rats, radiation plus AEOL 10113, 6 months, radiation only 4 of 9", "result": 1},
      {"measurement": "tumor growth as compared to control (Day 20 Tumor Ratio, Days for 5-fold tumor growth)", "setting": "[3]; listed as AEL 10113", "result": "limited tumor growth"},
      {"measurement": "tumor growth as compared to control (Day 20 Tumor Ratio, Days for 5-fold tumor growth)", "setting": "[3]; listed as AEOL 10113", "result": "significantly (p<0.05) inhibited tumor growth"},
      {"measurement": "post-radiation tumor regrowth", "setting": "[3]; radiation 21 Gy plus mimetic", "result": "significant inhibition of the post-radiation tumor regrowth"},
      {"measurement": "effect on tumor response to radiation", "setting": "[3]; radiation 21 Gy plus mimetic, listed as AEL 10113", "result": "did not diminish the effect of radiation on tumor growth"},
      {"measurement": "effect on tumor response to radiation", "setting": "[3]; radiation 21 Gy plus mimetic, listed as MnTE-2-PyP", "result": "does not protect tumor from irradiation"},
      {"measurement": "inhibition of tumor growth", "setting": "[3]; rat model, SOD mimetic alone", "result": "> 50", "unit": "%"}
    ]}
  ]
}
